From ChEMBL document CHEMBL1201862, “PubChem BioAssay data set” (2004)
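All cell lines were grown in 96-well plates and treated with compound for 48 hours. GI50 = concentration required for 50% inhibition of growth.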 The source made the active and inactive calls. Cut-off read from the data, not from the text of the source: active = GI50 up to about 1.1 µM and inactive = higher.

Assays:
Assay in all cases: growth of human tumour cells (NCI), 48 h
TK-10 = tested on: TK-10
SK-MEL-2 = tested on: SK-MEL-2
Malme-3M = tested on: Malme-3M
OVCAR-5 = tested on: OVCAR-5
UACC-257 = tested on: UACC-257
OVCAR-4 = tested on: OVCAR-4
CCRF-CEM = tested on: CCRF-CEM
KM12 = tested on: KM12
K562 = tested on: K562
OVCAR-8 = tested on: OVCAR-8
A498 = tested on: A498
NCI-H226 = tested on: NCI-H226
HOP-62 = tested on: HOP-62
SF-295 = tested on: SF-295
U-251 = tested on: U-251
COLO 205 = tested on: COLO 205
DU-145 = tested on: DU-145
IGROV-1 = tested on: IGROV-1
LOX IMVI = tested on: LOX IMVI

Measured: GI50

Cc1nnc(S(=O)(=O)c2ccc(/N=N/c3c(N)nc(N)nc3N)cc2)s1
inactive: TK-10 > 100 µM | SK-MEL-2 > 100 µM | Malme-3M > 100 µM | OVCAR-5 > 100 µM | UACC-257 > 100 µM | OVCAR-4 > 100 µM | CCRF-CEM > 100 µM | KM12 > 100 µM | K562 > 100 µM | OVCAR-8 > 100 µM | A498 > 100 µM | NCI-H226 > 100 µM | HOP-62 > 100 µM | SF-295 > 100 µM | U-251 > 100 µM | COLO 205 > 100 µM | DU-145 > 100 µM | IGROV-1 > 100 µM | LOX IMVI > 100 µM

N#Cc1[nH]c(=O)n(-c2ccc(Cl)cc2)c1N
inactive: TK-10 > 10 µM | SK-MEL-2 > 10 µM | Malme-3M 8.79 µM | OVCAR-5 > 10 µM | UACC-257 > 10 µM | OVCAR-4 > 10 µM | CCRF-CEM > 10 µM | KM12 > 10 µM | K562 > 10 µM | OVCAR-8 > 10 µM | A498 > 10 µM | NCI-H226 > 10 µM | HOP-62 > 10 µM | SF-295 > 10 µM | U-251 > 10 µM | COLO 205 > 10 µM | DU-145 > 10 µM | IGROV-1 > 10 µM | LOX IMVI > 10 µM

c1ccc(-c2cn3c(nc4ccccc43)c(-c3ccccc3)n2)cc1
inactive: TK-10 > 59.6 µM | SK-MEL-2 30.1 µM | Malme-3M > 96.2 µM | OVCAR-5 > 54.2 µM | UACC-257 > 100 µM | OVCAR-4 4.56 µM | CCRF-CEM > 100 µM | KM12 > 100 µM | K562 > 100 µM | OVCAR-8 13.3 µM | A498 44.6 µM | NCI-H226 > 60.8 µM | HOP-62 7.13 µM | SF-295 14.8 µM | U-251 14.2 µM | COLO 205 > 100 µM | DU-145 > 100 µM | IGROV-1 42.9 µM | LOX IMVI 81.8 µM

O=C(O)/C(=C\c1ccccc1)Cc1ccccc1
inactive: TK-10 > 100 µM | SK-MEL-2 > 100 µM | Malme-3M > 100 µM | OVCAR-5 > 100 µM | UACC-257 > 100 µM | OVCAR-4 > 100 µM | CCRF-CEM > 100 µM | KM12 > 100 µM | K562 > 100 µM | OVCAR-8 > 100 µM | A498 > 100 µM | NCI-H226 > 100 µM | HOP-62 > 100 µM | SF-295 > 100 µM | U-251 > 100 µM | COLO 205 > 100 µM | DU-145 > 100 µM | IGROV-1 > 100 µM | LOX IMVI > 100 µM

CC(=O)Oc1ccc2c(C)cc(=O)oc2c1OC(C)=O
inactive: TK-10 24.2 µM | SK-MEL-2 > 100 µM | Malme-3M 17.6 µM | OVCAR-5 93.5 µM | UACC-257 17.7 µM | OVCAR-4 46.8 µM | CCRF-CEM 5.4 µM | KM12 44 µM | K562 47.8 µM | OVCAR-8 27 µM | A498 37.7 µM | NCI-H226 30.6 µM | HOP-62 46.5 µM | SF-295 47.5 µM | U-251 35.2 µM | COLO 205 42.8 µM | DU-145 28.3 µM | IGROV-1 22.3 µM | LOX IMVI 22.2 µM

COc1ccc(C(=O)Cn2c(C(C)=O)nc3ccccc32)cc1
inactive: TK-10 > 76.6 µM | SK-MEL-2 12.7 µM | Malme-3M 41 µM | OVCAR-5 44.4 µM | UACC-257 30.4 µM | OVCAR-4 14.2 µM | CCRF-CEM 5.93 µM | KM12 7.1 µM | K562 4.4 µM | OVCAR-8 3.8 µM | A498 67 µM | NCI-H226 > 74 µM | HOP-62 12.1 µM | SF-295 13.1 µM | U-251 3.74 µM | COLO 205 18.3 µM | DU-145 30.7 µM | IGROV-1 6.73 µM | LOX IMVI 2.91 µM

C=CCN(CCNS(=O)(=O)c1ccc(C)cc1)S(=O)(=O)c1ccc(C)cc1
inactive: TK-10 > 55.2 µM | SK-MEL-2 34 µM | Malme-3M 36.1 µM | OVCAR-5 58.2 µM | UACC-257 8.02 µM | OVCAR-4 12.2 µM | CCRF-CEM > 55 µM | KM12 57.8 µM | K562 > 54.1 µM | OVCAR-8 17.3 µM | A498 6.07 µM | NCI-H226 > 71.3 µM | HOP-62 27.9 µM | SF-295 14 µM | U-251 > 49.5 µM | COLO 205 > 44.5 µM | DU-145 54.6 µM | IGROV-1 76.2 µM | LOX IMVI 17.3 µM
